Patent US10322123B2, “Compound for anti-cancer therapy that acts by targeting GOF mutant P53 and stimulates P73 to restore the P53 pathway signaling” (The Penn State Research Foundation, priority 2014, dated 2019)

Columns and labels:
mutant p53 [1] = assay type: cell-based, human
Procedure: (§1) The primary antibodies indicated in the figures were incubated with the transferred PVDF in blocking buffer at 4° C. overnight. Antibody binding was detected on PVDF with appropriate IRDye-secondary antibodies (LI-COR Biosciences, USA) by the ODYSSEY infrared imaging system.

wild-type p53 = assay: Wild-type p53 protein level Western blot; assay type: cell-based, human; conditions: 8 hr
Procedure: as §1, with “Proteins were extracted from cells and electrophoresed through 4-12% SDS-PAGE then transferred to PVDF membranes. The” for “The”

[2] = system: cancer cell lines bearing different p53 mutations; assay: CellTiter-Glo luminescent cell viability assay, cell line panel; assay type: cell-based, human; conditions: most cancer cells compared with normal cells, 72 hr
Procedure: Cells at a concentration of 5000 cells/well in 96-well plates were treated with NSC59984 or other drugs. At seventy-two hours after treatment, cells were mixed with an equal volume of CellTiter-Glo reagents (Promega, Madison, Wis.), following the manufacturer's protocol, and bioluminescence imaging was measured using the IVIS imager.

[3] = system: p53 transcriptional activity; assay: p53-responsive luciferase reporter bioluminescence imaging; assay type: cell-based, human; conditions: for 1/slope of dose-dependent p53-responsive reporter bioluminescence: 24 hr
Procedure: Functional cell-based screening for small molecules that can increase p53-transcriptional activity was performed using noninvasive bioluminescence imaging in human colorectal cancer cells (SW480, DLD-1, HCT116 and p53-null HCT116) that stably express a p53-regulated reporter, as previously described (Wang W, et al., Proc Natl Acad Sci USA 2006; 103: 11003-8). Cells were seeded in 96-well plates at a density of 5×10^4 cells/well. […] Cells treated with 5 μM of Prodigiosin were used as a positive control, and DMSO treatment was used as a negative control in each screened plate. The bioluminescence in each treatment was normalized to DMSO treatment.
SW480, DLD-1, HCT116 and p53-null HCT116 cells which stably express a p53-regulated luciferase reporter were generated as previously described (Wang et al., 2006, Proc. Natl. Acad. Sci. USA 103:11003-11008; Wang et al., 2003, Cancer Biol. Ther. 2:196-202). MRCS, Wi38, Hop92 and RXF393 were obtained from ATCC and cultured as recommended. Cells were regularly authenticated by bioluminescence, growth and morphological observation.

mutant p53 [4] = assay: Ubiquitination of mutant p53 (immunoprecipitation); assay type: cell-based, human; conditions: cancer cells treated with NSC59984 and MG132, 16 hr
Procedure: Five hundred micrograms of cell lysate were incubated with 2 μg of antibody overnight at 4° C. Then, 25 μl of protein A-Sepharose beads were added to the lysates. The immunoprecipitated proteins were eluted from protein A-Sepharose beads by boiling with 2× sample buffer and subjected to SDS-PAGE.
as §1, with “Proteins were extracted from cells and electrophoresed through 4-12% SDS-PAGE then transferred to PVDF membranes. The” for “The”

MDM2 = assay: Phosphorylation Western blot; assay type: cell-based, human; conditions: SW480 cells
Procedure: as §1, with “Proteins were extracted from cells and electrophoresed through 4-12% SDS-PAGE then transferred to PVDF membranes. The” for “The”

[5] = Body weight and toxicity in xenograft mice; assay type: in vivo; conditions: 45 mg/kg i.p. every 5 days
Procedure: CRL nude mice (female, 4-6 weeks old) were inoculated s.c. in the opposite flanks with 5 million DLD-1 or p73 knock-down DLD-1 cells in an equal volume of martrigel. Treatment with NSC59984 (i.p. injection) was initiated when the tumor masses reached a size of 3-5 mm. NSC59984 (45 mg/kg) was injected by i.p. route every 5 days. Fifteen days after treatment, the mice were euthanized using an institutional animal care and use committee-approved animal protocol.

## CN1CCN(C(=O)/C=C/c2ccc([N+](=O)[O-])o2)CC1 [NSC59984, (E)-1-(4-methylpiperazin-1-yl)-3-(5-nitrofuran-2-yl)prop-2-en-1-one]
Mutant p53 [1]; DLD-1 and RXF393 cells, 50 μM
  total mutant p53 protein degraded: 25-50%
Mutant p53 [1]; SW480, DLD-1, Hop92 and RXF393 cells, 8 hr, dose-dependent
  mutant p53 protein level: down-regulated
wild-type p53; HCT116 cancer cells, 25 and 50 μM
  wild-type p53 protein: up-regulated
wild-type p53; MRC-5 normal cells, 50 μM
  wild-type p53 protein: up-regulated
[2]
  EC50 cell viability: significantly lower
[3]; DLD-1 (mutant p53 S241F)
  1/slope of dose-dependent p53-responsive reporter bioluminescence: 29.75
[3]; SW480 (mutant p53 R273H, P309S)
  1/slope of dose-dependent p53-responsive reporter bioluminescence: 31.37
[3]; SW480 cells, 10 μM
  p53-responsive bioluminescence: increases
[3]; p53-null HCT116 cells
  1/slope of dose-dependent p53-responsive reporter bioluminescence: 102.9
[3]; p53-null HCT116 cells, increasing doses
  p53-responsive bioluminescence: slightly induced
[3]; p73-overexpressing (Ad-p73) SW480 cells vs wild-type p53-overexpressing SW480 cells, 8 hr
  p53-responsive bioluminescence: significantly increased
[3]; p73 knock-down SW480 cells, 8 hr
  NSC59984-induced p53-responsive bioluminescence: abrogated
[3]; wild-type p53-expressing HCT116 cells
  1/slope of dose-dependent p53-responsive reporter bioluminescence: 328.4
[3]; wild-type p53-expressing HCT116 cells, increasing doses
  p53-responsive bioluminescence: no significant increase
Mutant p53 [4]
  ubiquitination of mutant p53: increased ubiquitination
MDM2
  phosphorylation of MDM2: phosphorylated at Ser166
[5]
  mouse body weights: did not cause an obvious change
[5]; tested dose
  toxic effect in mice: no overt toxic effect
